Assay results: PMC9713320, “Study of the anticancer effect of new quinazolinone hydrazine derivatives as receptor tyrosine kinase inhibitors” (Frontiers in Chemistry, 2022)
Values belong to the compound of their own block, whether it stands above or below them.

How the values were obtained:
[1] = tested on: U-87MG; experiment: cells; parameters: MTT antiproliferative assay, absorbance at 570 nm, monolayer cancer cells; details: Homo sapiens, 72 h, MTT, read-out: IC50 (µM) / Mean ± SEM / U-87MG
Text: (§1) MTT (3-(4,5-dimethylthiazol-2-yl)-2,5-diphenyltetrazolium bromide) assay was applied to evaluate the antiproliferative effects of synthetic compounds against cancer and normal cell lines as previously described ([Damghani et al., 2021]). The MTT assay is based on the reduction function of NAD(P)H-dependent cellular oxidoreductase enzymes on yellow tetrazolium dye MTT to its insoluble formazan, which has a purple color and reflects the number of viable cells. Cancer and non-cancer cells were seeded in 96-well flat bottom plates at different densities of 1.5 × 10^4 (HT-29), 3 × 10^4 (A549 and U-87MG), 4 × 10^4 (EBC-1). Synthetic compounds were first dissolved in DMSO and then diluted in growth medium. After 24 h the attached cells were exposed to 100 µL of 3-4 different concentrations of synthesized derivatives in triplicate manner and incubated for an additional 72 h at 37°C. In addition, 3–4 different concentrations of reference compounds were added to wells. To perform the MTT assay the media was discarded from each well and MTT solution in phosphate-buffered saline at a concentration of 0.5 mg/ml was added to all wells. Then, plates were incubated at 37°C for 4 h to allow formation of formazan crystals. Afterwards, crystals were dissolved in 200 μL DMSO, shake on an orbital shaker for 30 min and absorbance was measured at a wavelength of 570 nm with background correction at 650 nm using a Bio-Tek microplate reader (Model Synergy HTX). Finally, IC50 values for each compound was calculated with CurveExpert software version 1.4 for windows. Each experiment was repeated 3–5 times. EBC-1 (human lung adenocarcinoma cells) were obtained from Japanese Collection of Research Bio Resources Cell Bank (JCRB). A549 (human lung adenocarcinoma cells), HT-29 (Human colorectal adenocarcinoma cells) and U-87MG (human primary glioblastoma cells) were obtained from Iranian Biological Resource Centre, Tehran, Iran. EBC-1 cells were cultured in RPMI 1640 medium containing 10% heat-inactivated fetal bovine serum (FBS) and 1% penicillin/streptomycin. A549, HT-29 and U-87MG cells were grown in DMEM low glucose, containing 10% heat-inactivated FBS and 1% penicillin/streptomycin. All cells were grown in monolayer culture at 37°C in a humidified incubator with 5% CO2. We employed the MTT assay in order to investigate the antiproliferative effects of the synthetic compounds against four different cancer cell lines, including lung cancer cell lines EBC-1 (with MET amplification) and A549, the human colorectal cancer cells HT-29, as well as the human glioblastoma cell line U-87MG.

[2] = tested on: EBC-1; experiment: cells; parameters: MTT antiproliferative assay, absorbance at 570 nm, monolayer cancer cells; details: Homo sapiens, 72 h, MTT, read-out: IC50 (µM) / Mean ± SEM / EBC-1
Text: as §1

[3] = tested on: A549; experiment: cells; parameters: MTT antiproliferative assay, absorbance at 570 nm, monolayer cancer cells; details: Homo sapiens, 72 h, MTT, read-out: IC50 (µM) / Mean ± SEM / A549
Text: as §1

[4] = tested on: HT-29; experiment: cells; parameters: MTT antiproliferative assay, absorbance at 570 nm, monolayer cancer cells; details: Homo sapiens, 72 h, MTT, read-out: IC50 (µM) / Mean ± SEM / HT29
Text: as §1

[5] = biological target: ALK (Homo sapiens, UniProt Q9UM73); experiment: radiometric kinase panel, % inhibition at […]; format: biochemical
[6] = biological target: MET kinase (Homo sapiens, UniProt P08581); experiment: HTRF kinase assay; confirmed by radiometric assay; format: biochemical
[7] = biological target: 6) FGFR1(h) (Homo sapiens, UniProt P11362); experiment: biochemical; parameters: Radiometric kinase activity assay, percent inhibition, Eurofins Cerep; details: read-out: Kinase inhibition (%) ^a / 10 µM
Procedure: (§2) Kinase inhibition profile was examined by Kinase Radiometric Assays for 18 different oncogenic kinases (Eurofins Cerep, Celle l'Evescault, France). In order to investigate the activity of compound CM9, as the most promising agent in this series, against other oncogenic kinases, we further assessed this derivative against a panel of 18 other protein kinases using a radiometric assay at the concentrations of 10 and/or 25 μM (Table 4).

[8] = biological target: 14) PDGFRA (PDGFRα) (h) (Homo sapiens, UniProt P16234); experiment: biochemical; parameters: Radiometric kinase activity assay, percent inhibition, Eurofins Cerep; details: read-out: Kinase inhibition (%) ^a / 10 µM / −4
Procedure: as §2

[9] = biological target: 3) AXL(h) (Homo sapiens, UniProt P30530); experiment: biochemical; parameters: Radiometric kinase activity assay, percent inhibition, Eurofins Cerep; details: read-out: Kinase inhibition (%) ^a / 10 µM
Procedure: as §2

[10] = biological target: 17) MST1R (RON) (h) (Homo sapiens, UniProt Q04912); experiment: biochemical; parameters: Radiometric kinase activity assay, percent inhibition, Eurofins Cerep; details: read-out: Kinase inhibition (%) ^a / 10 µM / −4
Procedure: as §2

[11] = biological target: 15) PDGFRB (PDGFRβ) (h) (Homo sapiens, UniProt P09619); experiment: biochemical; parameters: Radiometric kinase activity assay, percent inhibition, Eurofins Cerep
Procedure: as §2

[12] = biological target: 1) ABL1(h) (Homo sapiens, UniProt P00519); experiment: biochemical; parameters: Radiometric kinase activity assay, percent inhibition, Eurofins Cerep; details: read-out: Kinase inhibition (%) ^a / 10 µM
Procedure: as §2

[13] = biological target: 8) FLT3 (h) (Homo sapiens, UniProt P36888); experiment: biochemical; parameters: Radiometric kinase activity assay, percent inhibition, Eurofins Cerep
Procedure: as §2

[14] = biological target: 13) MET(h) (Homo sapiens, UniProt P08581); experiment: biochemical; parameters: Radiometric kinase activity assay, percent inhibition, Eurofins Cerep
Procedure: as §2

[15] = biological target: 5) EGFR(h) (Homo sapiens, UniProt P00533); experiment: biochemical; parameters: Radiometric kinase activity assay, percent inhibition, Eurofins Cerep; details: read-out: Kinase inhibition (%) ^a / 10 µM
Procedure: as §2

[16] = biological target: 4) KIT (c-Kit) (h) (Homo sapiens, UniProt P10721); experiment: biochemical; parameters: Radiometric kinase activity assay, percent inhibition, Eurofins Cerep; details: read-out: Kinase inhibition (%) ^a / 10 µM
Procedure: as §2

[17] = biological target: 11) MAPK3 (ERK1) (h) (Homo sapiens, UniProt P27361); experiment: biochemical; parameters: Radiometric kinase activity assay, percent inhibition, Eurofins Cerep; details: read-out: Kinase inhibition (%) ^a / 10 µM
Procedure: as §2

[18] = biological target: 7) FLT1 (VEGFR1) (h) (Homo sapiens, UniProt P17948); experiment: biochemical; parameters: Radiometric kinase activity assay, percent inhibition, Eurofins Cerep; details: read-out: Kinase inhibition (%) ^a / 10 µM
Procedure: as §2

[19] = biological target: 18) ROS1 (Homo sapiens, UniProt P08922); experiment: biochemical; parameters: Radiometric kinase activity assay, percent inhibition, Eurofins Cerep; details: read-out: Kinase inhibition (%) ^a / 10 µM / −4
Procedure: as §2

[20] = biological target: 2) ALK(h) (Homo sapiens, UniProt Q9UM73); experiment: biochemical; parameters: Radiometric kinase activity assay, percent inhibition, Eurofins Cerep; details: read-out: Kinase inhibition (%) ^a / 10 µM
Procedure: as §2

[21] = biological target: MAPK1(m) (ERK2) (Mus musculus, UniProt P63085); experiment: biochemical; parameters: Radiometric kinase activity assay, percent inhibition, Eurofins Cerep; details: read-out: Kinase inhibition (%) ^a / 10 µM / −4
Procedure: as §2

[22] = biological target: 19) NTRK1 (TRKA) (h) (Homo sapiens, UniProt P04629); experiment: biochemical; parameters: Radiometric kinase activity assay, percent inhibition, Eurofins Cerep; details: read-out: Kinase inhibition (%) ^a / 10 µM / −4
Procedure: as §2

[23] = biological target: 9) FLT4 (VEGFR3) (Homo sapiens, UniProt P35916); experiment: biochemical; parameters: Radiometric kinase activity assay, percent inhibition, Eurofins Cerep; details: read-out: Kinase inhibition (%) ^a / 10 µM
Procedure: as §2

[24] = biological target: 10) KDR (VEGFR2) (h) (Homo sapiens, UniProt P35968); experiment: biochemical; parameters: Radiometric kinase activity assay, percent inhibition, Eurofins Cerep; details: read-out: Kinase inhibition (%) ^a / 10 µM
Procedure: as §2

[25] = biological target: 16) RET(h) (Homo sapiens, UniProt P07949); experiment: biochemical; parameters: Radiometric kinase activity assay, percent inhibition, Eurofins Cerep; details: read-out: Kinase inhibition (%) ^a / 10 µM / −4
Procedure: as §2

[26] = biological target: FLT1 (VEGFR1) (Homo sapiens, UniProt P17948); experiment: radiometric kinase panel, % inhibition at […]; format: biochemical
[27] = biological target: FGFR1 (Homo sapiens, UniProt P11362); experiment: radiometric kinase panel, % inhibition at […]; format: biochemical
[28] = biological target: FLT4 (VEGFR3) (Homo sapiens, UniProt P35916); experiment: radiometric kinase assay (Eurofins), concentration-effect curve; format: biochemical
[29] = biological target: AXL (Homo sapiens, UniProt P30530); experiment: radiometric kinase panel, % inhibition at […]; format: biochemical
[30] = read-out: Kinase inhibition (%) ^a / 10 µM / −4
[31] = read-out: Kinase inhibition (%) ^a / 25 µM

8) FLT3 (h), sequence (P36888 whole entry): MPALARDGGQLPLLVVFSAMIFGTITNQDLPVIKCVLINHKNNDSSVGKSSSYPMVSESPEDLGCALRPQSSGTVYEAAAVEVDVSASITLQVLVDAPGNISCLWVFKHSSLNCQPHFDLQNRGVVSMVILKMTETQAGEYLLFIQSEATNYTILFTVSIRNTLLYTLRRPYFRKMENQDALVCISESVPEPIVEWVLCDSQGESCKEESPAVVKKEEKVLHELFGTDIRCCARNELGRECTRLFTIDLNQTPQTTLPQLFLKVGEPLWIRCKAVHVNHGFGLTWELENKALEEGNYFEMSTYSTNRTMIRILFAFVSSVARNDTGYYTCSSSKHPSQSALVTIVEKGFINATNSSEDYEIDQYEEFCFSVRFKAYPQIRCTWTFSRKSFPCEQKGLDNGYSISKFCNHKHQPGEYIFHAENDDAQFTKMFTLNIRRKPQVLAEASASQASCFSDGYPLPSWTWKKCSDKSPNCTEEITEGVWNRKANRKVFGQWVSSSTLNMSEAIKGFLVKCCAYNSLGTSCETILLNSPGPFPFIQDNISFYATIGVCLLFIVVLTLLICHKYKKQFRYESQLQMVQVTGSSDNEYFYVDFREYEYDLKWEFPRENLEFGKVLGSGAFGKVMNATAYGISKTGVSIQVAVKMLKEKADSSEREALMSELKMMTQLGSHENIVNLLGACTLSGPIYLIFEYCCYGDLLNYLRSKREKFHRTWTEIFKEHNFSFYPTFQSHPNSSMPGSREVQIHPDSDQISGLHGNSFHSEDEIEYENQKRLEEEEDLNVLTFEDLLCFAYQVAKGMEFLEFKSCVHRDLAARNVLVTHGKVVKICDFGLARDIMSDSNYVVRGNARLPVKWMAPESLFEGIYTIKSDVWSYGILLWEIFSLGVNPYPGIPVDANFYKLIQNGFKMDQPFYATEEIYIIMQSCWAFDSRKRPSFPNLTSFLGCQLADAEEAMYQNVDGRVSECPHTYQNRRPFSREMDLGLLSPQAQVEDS
15) PDGFRB (PDGFRβ) (h), sequence (P09619 whole entry): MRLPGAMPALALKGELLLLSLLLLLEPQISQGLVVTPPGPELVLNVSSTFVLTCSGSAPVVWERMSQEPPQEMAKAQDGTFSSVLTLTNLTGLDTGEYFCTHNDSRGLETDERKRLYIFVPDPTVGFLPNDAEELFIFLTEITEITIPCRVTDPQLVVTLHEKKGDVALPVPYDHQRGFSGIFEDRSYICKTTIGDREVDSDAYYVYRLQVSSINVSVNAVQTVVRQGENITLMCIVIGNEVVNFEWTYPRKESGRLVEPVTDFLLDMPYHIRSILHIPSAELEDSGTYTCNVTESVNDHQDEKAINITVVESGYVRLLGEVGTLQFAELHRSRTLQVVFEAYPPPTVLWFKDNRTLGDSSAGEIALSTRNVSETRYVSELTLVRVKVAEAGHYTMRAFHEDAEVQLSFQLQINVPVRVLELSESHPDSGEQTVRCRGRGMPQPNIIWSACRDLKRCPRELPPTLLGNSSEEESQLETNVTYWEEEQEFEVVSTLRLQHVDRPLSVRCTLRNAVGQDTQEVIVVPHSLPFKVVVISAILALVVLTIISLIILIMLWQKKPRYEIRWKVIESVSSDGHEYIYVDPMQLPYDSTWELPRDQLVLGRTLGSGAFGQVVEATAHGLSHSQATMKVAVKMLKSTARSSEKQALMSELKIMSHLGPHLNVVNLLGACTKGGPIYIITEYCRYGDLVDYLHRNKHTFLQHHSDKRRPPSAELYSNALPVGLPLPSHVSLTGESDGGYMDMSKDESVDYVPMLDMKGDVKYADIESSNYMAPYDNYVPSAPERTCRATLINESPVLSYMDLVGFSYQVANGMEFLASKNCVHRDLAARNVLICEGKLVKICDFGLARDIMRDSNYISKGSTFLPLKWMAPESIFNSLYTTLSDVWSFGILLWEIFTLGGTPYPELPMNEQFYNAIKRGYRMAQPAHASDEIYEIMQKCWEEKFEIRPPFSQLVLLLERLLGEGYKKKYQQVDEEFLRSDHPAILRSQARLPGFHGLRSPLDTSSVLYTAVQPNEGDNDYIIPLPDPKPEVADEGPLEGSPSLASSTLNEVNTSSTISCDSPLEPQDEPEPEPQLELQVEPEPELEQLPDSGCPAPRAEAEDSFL
13) MET(h), sequence (P08581 whole entry): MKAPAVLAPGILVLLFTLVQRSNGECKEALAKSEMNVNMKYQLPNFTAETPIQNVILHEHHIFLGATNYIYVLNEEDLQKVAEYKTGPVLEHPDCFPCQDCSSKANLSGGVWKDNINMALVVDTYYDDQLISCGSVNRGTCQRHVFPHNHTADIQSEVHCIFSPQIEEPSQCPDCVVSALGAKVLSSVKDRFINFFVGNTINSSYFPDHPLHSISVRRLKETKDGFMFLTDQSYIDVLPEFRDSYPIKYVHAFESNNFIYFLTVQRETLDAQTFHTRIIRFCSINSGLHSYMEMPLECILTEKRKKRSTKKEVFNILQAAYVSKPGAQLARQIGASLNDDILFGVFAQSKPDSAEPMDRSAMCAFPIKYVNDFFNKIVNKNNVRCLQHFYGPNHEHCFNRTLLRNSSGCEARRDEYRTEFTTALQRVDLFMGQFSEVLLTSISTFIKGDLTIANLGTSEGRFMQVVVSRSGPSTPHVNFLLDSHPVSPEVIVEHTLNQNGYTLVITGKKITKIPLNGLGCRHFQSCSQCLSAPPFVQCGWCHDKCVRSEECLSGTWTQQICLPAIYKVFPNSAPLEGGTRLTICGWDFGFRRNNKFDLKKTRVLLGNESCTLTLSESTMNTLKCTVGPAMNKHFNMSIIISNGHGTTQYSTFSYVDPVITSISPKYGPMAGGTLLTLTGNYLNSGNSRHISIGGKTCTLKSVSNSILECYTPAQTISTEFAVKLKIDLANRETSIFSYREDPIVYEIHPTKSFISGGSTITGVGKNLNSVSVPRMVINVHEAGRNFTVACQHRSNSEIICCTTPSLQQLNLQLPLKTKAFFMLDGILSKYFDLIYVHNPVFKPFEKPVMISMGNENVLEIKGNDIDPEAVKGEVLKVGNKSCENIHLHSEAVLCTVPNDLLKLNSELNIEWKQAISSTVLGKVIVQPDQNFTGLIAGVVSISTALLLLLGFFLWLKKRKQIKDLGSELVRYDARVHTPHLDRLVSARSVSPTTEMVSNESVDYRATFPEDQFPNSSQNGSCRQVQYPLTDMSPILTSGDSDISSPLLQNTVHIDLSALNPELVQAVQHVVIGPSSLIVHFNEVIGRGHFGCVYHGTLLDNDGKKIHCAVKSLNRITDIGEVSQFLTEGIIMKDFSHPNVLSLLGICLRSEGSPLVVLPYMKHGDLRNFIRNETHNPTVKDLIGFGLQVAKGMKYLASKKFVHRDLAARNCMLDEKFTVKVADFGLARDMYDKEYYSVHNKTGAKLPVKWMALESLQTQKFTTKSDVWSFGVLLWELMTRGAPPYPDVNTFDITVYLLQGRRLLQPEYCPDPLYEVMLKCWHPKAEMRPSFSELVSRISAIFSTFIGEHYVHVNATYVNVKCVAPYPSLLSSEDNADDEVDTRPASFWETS
11) MAPK3 (ERK1) (h), sequence (P27361 whole entry): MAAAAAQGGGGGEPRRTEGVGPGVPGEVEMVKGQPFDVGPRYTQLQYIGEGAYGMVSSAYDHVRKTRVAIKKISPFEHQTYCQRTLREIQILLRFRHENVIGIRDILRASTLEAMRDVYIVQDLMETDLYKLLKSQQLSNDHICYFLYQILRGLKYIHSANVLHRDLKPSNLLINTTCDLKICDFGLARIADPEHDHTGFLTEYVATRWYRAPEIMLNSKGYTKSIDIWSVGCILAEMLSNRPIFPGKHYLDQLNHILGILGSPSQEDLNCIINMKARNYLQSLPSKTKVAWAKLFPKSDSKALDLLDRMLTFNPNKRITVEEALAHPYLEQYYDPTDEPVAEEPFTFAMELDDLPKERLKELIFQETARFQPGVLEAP
FGFR1, sequence (P11362 22-822): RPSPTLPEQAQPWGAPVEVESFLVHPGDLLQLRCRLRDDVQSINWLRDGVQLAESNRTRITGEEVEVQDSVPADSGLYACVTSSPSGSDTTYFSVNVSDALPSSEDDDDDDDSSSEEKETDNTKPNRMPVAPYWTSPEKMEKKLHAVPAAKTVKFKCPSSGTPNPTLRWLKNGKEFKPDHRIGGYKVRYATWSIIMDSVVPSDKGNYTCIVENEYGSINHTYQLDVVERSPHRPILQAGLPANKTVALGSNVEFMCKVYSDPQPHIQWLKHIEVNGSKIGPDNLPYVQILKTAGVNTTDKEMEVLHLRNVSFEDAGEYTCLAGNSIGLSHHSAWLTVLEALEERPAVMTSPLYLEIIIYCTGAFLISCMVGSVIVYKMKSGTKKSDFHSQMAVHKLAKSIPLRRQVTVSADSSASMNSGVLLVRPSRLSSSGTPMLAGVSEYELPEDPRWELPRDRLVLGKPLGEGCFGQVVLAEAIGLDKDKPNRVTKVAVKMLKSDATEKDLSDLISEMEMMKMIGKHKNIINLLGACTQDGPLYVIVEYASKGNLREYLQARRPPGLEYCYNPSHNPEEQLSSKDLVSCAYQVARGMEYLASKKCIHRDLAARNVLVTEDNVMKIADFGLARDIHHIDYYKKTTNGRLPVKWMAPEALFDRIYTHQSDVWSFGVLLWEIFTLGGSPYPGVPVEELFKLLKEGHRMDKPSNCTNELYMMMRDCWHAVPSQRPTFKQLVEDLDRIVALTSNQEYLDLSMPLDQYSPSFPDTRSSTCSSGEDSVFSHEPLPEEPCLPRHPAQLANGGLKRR
MAPK1(m) (ERK2), sequence (P63085 whole entry): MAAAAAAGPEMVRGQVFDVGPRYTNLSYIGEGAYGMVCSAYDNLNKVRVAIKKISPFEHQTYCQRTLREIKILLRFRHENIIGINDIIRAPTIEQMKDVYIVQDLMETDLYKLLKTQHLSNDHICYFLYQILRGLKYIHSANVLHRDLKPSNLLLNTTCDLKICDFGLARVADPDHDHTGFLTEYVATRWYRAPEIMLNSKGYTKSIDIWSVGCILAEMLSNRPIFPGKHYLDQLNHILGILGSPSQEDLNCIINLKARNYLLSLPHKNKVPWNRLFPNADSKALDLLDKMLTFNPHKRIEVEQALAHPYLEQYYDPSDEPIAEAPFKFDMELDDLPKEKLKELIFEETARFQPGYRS

IC50 [1]: 67.1 ± 6.2 µM
IC50 [3]: > 100 µM
IC50 [4]: 27.8 ± 5.1 µM
Structure (SMILES): Cn1c(N/N=C/c2ccc(OCc3cn(Cc4ccc(F)cc4)nn3)cc2)nc2ccccc2c1=O [CM4]
IC50 [2]: 36.2 ± 10.8 µM

IC50 [1]: > 100 µM
IC50 [3]: > 100 µM
IC50 [4]: > 100 µM
Structure (SMILES): Cn1c(N/N=C/c2ccc(OCc3cn(Cc4ccc(Cl)cc4)nn3)cc2)nc2ccccc2c1=O [CM5]
IC50 [2]: > 100 µM

IC50 [1]: > 100 µM
IC50 [3]: > 100 µM
IC50 [4]: > 100 µM
Structure (SMILES): Cn1c(N/N=C/c2ccc(OCc3cn(Cc4ccccc4)nn3)cc2)nc2ccccc2c1=O [CM6]
IC50 [2]: 32.5 ± 6.8 µM

IC50 [1]: > 100 µM
IC50 [3]: > 100 µM
IC50 [4]: 56.4 ± 14.5 µM
Structure (SMILES): Cn1c(N/N=C/c2ccc(OCc3cn(Cc4ccc(C(C)(C)C)cc4)nn3)cc2)nc2ccccc2c1=O [CM3]
IC50 [2]: > 100 µM

IC50 [1]: 51.1 ± 7.6 µM
IC50 [3]: 34.5 ± 2.2 µM
IC50 [4]: 47.8 ± 6.7 µM
Structure (SMILES): Cn1c(N/N=C/c2ccc(OCc3cn(Cc4ccc(Cl)c(Cl)c4)nn3)cc2)nc2ccccc2c1=O [CM8]
IC50 [2]: 22.4 ± 6 µM

More lines, now with the values behind:

Structure (SMILES): Cc1ccc(Cn2cc(COc3ccc(/C=N/Nc4nc5ccccc5c(=O)n4C)cc3)nn2)cc1 [CM2]
IC50 [1]: > 100 µM
IC50 [2]: > 100 µM
IC50 [3]: > 100 µM
IC50 [4]: > 100 µM

Structure (SMILES): Cn1c(N/N=C/c2ccc(OCc3cn(Cc4ccc([N+](=O)[O-])cc4)nn3)cc2)nc2ccccc2c1=O [CM1]
IC50 [1]: > 100 µM
IC50 [2]: > 100 µM
IC50 [3]: > 100 µM
IC50 [4]: > 100 µM

Structure (SMILES): Cn1c(N/N=C/c2ccc(OCc3cn(Cc4ccc(Br)cc4)nn3)cc2)nc2ccccc2c1=O [CM9, (E)-2-(2-(4-((1-(4-bromobenzyl)-1H-1,2,3-triazol-4-yl)methoxy)benzylidene)hydrazinyl)-3-methylquinazolin-4(3H)-one]
inhibition at 25 µM [5]: 51%
IC50 [1]: 24.6 ± 2.6 µM
IC50 [2]: 8.6 ± 1.9 µM
IC50 [3]: 64.9 ± 2.9 µM
IC50 [4]: 65.2 ± 15.4 µM
IC50 [6]: 22.8 ± 3.9 µM
inhibition at 10 µM [7]: 39%
inhibition at 10 µM [8]: 5%
inhibition at 10 µM [9]: 28%
inhibition at 10 µM [10]: 5%
inhibition at 10 µM [11, 30]: 23%
inhibition at 25 µM [11, 31]: 10%
inhibition at 10 µM [12]: 14%
inhibition at 10 µM ([13]; read-out: Kinase inhibition (%) ^a / 10 µM): 24%
inhibition at 25 µM [13, 31]: 47%
inhibition at 10 µM [14, 30]: 27%
inhibition at 25 µM [14, 31]: 58%
inhibition at 10 µM [15]: -2%
inhibition at 10 µM [16]: 0%
inhibition at 10 µM [17]: -4%
inhibition at 10 µM [18]: 22%
inhibition at 10 µM [19]: -25%
inhibition at 10 µM [20]: 25%
inhibition at 10 µM [21]: 3%
inhibition at 10 µM [22]: 4%
inhibition at 10 µM [23]: 86%
inhibition at 10 µM [24]: 0%
inhibition at 10 µM [25]: -12%
inhibition at 25 µM [26]: 82%
inhibition at 25 µM [27]: 66%
IC50 [28]: 5.01 µM
inhibition at 25 µM [29]: 65%
